ChEMBL document CHEMBL1129406, “Sustained decrease in cocaine-maintained responding in rhesus monkeys with 1-[2-[bis(4-fluorophenyl)methoxy]ethyl]-4-(3-hydroxy-3-phenylpropyl) piperazinyl decanoate, a long-acting ester derivative of GBR 12909” (1996)

Tests used:
Format in all cases: functional, Cercopithecidae
Monkey [1] = assay: Effect of compound on rate of response maintained by cocaine (4.026 resp/s,+/-13.6%) in monkeys
Monkey [2] = assay: Effect of compound on rate of response maintained by cocaine (4.026 resp/s,+/-13.6%) in monkeys at a dose of 3 mL
Monkey [3] = assay: Effect of compound on rate of response maintained by cocaine (4.026 resp/s,+/-13.6%) in monkeys at a dose of 6 mL
Monkey [4] = assay: Effect of compound on rate of response maintained by food (3.696 resp/s, +/-9.99%) in monkeys
Monkey [5] = assay: Effect of compound on rate of response maintained by food (3.696 resp/s, +/-9.99%) in monkeys at a dose of 3 mL

Q: For `CCCCCCCCCC(=O)OC(CCN1CCN(CCOC(c2ccc(F)cc2)c2ccc(F)cc2)CC1)c1ccccc1` (stereo not given), which Control (Monkey [1]) is on record?
A: 76.2%

Q: What about the Control (Monkey [2]) of the same compound?
A: 74%

Q: And the Control (Monkey [3])?
A: 25.3%

Q: What about the Control (Monkey [4]) of the same compound?
A: 97%

Q: And the Control (Monkey [5])?
A: 82%
